# Source: paper PMC7782793, “Hydroxamic acid-modified peptide microarrays for profiling isozyme-selective interactions and inhibition of histone deacetylases” (Nature Communications, 2021)
# Where “and” joins values, the source holds several entries; their conditions need not be identical. Equal entries are not always repeated. Marks after values point to notes of the source that are not given here. Non-standard residues stand in square brackets, D forms with d. Residues, ends and D or L forms follow the SMILES beside them. *: point of attachment. Asu = N[C@@H](CCCCCC(=O)O)C(=O)O; NHOH = ON*
# Experiments:
# HDAC6 = molecular target: T1, HDAC6 (Homo sapiens, UniProt Q9UBN7); assay: HDAC inhibition assay (fluorogenic, Ac-Leu-Gly-Lys(Ac)-AMC); assay type: biochemical; conditions: HDAC6, replicates
# T1 construct: HDAC6 (full length, BPS Bioscience, cat. #: 50056); purchased BPS Bioscience 50056
# T1 sequence (Q9UBN7 1-1215): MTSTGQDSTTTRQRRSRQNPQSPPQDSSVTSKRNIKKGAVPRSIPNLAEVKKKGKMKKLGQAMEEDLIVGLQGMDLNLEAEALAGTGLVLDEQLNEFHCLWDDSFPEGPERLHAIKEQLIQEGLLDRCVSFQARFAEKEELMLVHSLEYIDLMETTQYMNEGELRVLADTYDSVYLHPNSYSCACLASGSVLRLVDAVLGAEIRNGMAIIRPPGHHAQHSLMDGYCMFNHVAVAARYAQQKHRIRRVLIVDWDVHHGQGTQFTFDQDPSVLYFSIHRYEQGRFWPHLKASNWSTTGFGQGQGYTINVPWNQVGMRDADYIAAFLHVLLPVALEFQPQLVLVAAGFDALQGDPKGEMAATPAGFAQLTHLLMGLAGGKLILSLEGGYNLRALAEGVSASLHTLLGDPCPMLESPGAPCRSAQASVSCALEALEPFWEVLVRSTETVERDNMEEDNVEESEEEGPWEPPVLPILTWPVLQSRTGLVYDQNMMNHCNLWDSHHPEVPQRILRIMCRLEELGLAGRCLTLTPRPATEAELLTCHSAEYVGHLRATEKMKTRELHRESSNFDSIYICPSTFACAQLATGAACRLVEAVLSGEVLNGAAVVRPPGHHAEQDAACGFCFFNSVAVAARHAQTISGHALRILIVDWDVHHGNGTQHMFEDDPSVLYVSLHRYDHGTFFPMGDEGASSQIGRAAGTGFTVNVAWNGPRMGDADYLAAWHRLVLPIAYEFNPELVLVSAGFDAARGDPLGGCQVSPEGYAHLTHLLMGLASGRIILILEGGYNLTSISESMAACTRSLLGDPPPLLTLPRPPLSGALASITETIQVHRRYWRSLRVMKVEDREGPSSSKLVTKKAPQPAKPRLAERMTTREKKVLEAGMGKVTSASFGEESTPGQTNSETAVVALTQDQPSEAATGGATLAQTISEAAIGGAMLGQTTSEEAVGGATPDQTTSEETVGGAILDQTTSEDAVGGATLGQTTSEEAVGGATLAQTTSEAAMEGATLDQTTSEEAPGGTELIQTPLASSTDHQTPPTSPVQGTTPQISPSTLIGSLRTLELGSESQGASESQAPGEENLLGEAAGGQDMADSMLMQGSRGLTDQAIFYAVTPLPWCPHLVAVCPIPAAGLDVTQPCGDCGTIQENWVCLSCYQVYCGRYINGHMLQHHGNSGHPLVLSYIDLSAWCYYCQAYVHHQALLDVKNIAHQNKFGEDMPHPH
# HDAC3/NCoR2 [1] = molecular target: T2, HDAC3/NCoR2 (Homo sapiens, UniProt O15379); assay: Recombinant HDAC µSPOT microarray binding assay;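 also: peptide spots on cellulose slides incubated with rising HDAC enzyme concentrations, imaged together, four-parameter logistic fit, EC50 is enzyme concentration giving half-maximal binding signal, two experiments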
# T2 construct: HDAC3/NCoR2 (full length, C-terminal His tag, NCoR2 N-terminal GST tag); purchased BPS Bioscience 50003
# HDAC3/NCoR2 [2] = molecular target: T2, HDAC3/NCoR2; assay: HDAC inhibition assay (fluorogenic, Ac-Leu-Gly-Lys(Ac)-AMC); assay type: biochemical; conditions: for HDAC3 dose-response data (relative enzyme activity), Fig. 6 + S. Fig. 10: duplicate columns
# HDAC1 = molecular target: T3, HDAC1 (Homo sapiens, UniProt Q13547); assay: Recombinant HDAC µSPOT microarray binding assay;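 also: slides with spotted peptides incubated with six HDAC concentrations in HEPES buffer pH 7.4, spot intensities fitted by four-parameter logistic, EC50 as enzyme concentration giving half-maximal binding signal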
# T3 construct: HDAC1 (full length, C-terminal His tag, C-terminal FLAG tag, BPS Bioscience, cat. #: 50051); FLAG (C); purchased BPS Bioscience 50051
# Description: Experiments were performed twice, data were obtained with Array Analyze software (Active Motif), and data analysis and representation were performed with the GraphPad Prism 7 software. Outliers were curated manually and data were fitted to nonlinear regression [log(agonist) vs. response—variable slope (four parameters)]. […] Non-sigmoidal curves were denoted as not determined (N.D.) The pEC50 values were determined as the concentration of HDAC enzyme required for half-maximal binding signal.
# HDAC8 = molecular target: T4, HDAC8 (Homo sapiens, UniProt Q9BY41); assay: Recombinant HDAC µSPOT microarray binding assay;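 also: peptide µSPOT slides incubated with varying HDAC enzyme concentrations, imaged signal intensity fitted by four-parameter variable-slope regression, EC50 is enzyme concentration giving half-maximal binding, pH 7.4 HEPES buffer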
# T4 construct: HDAC8 (full length, C-terminal His tag, BPS Bioscience, cat. #: 50008); purchased BPS Bioscience 50008
# T4 sequence (Q9BY41 1-377): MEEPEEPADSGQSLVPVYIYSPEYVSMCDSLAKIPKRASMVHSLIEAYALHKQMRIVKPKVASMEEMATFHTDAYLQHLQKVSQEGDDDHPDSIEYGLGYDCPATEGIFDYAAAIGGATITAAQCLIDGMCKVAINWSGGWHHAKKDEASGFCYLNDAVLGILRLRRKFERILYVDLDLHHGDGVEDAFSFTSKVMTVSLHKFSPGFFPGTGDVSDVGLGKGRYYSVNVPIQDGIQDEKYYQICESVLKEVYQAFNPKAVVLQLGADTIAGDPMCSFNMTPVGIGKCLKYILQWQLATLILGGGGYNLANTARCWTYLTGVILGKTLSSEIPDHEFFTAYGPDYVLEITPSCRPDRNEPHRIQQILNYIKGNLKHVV
# HDAC2 = molecular target: T5, HDAC2 (Homo sapiens, UniProt Q92769); assay: HDAC inhibition assay (fluorogenic, Ac-Leu-Gly-Lys(Ac)-AMC); assay type: biochemical; conditions: for HDAC2 dose-response data (relative enzyme activity), Fig. 6 + S. Fig. 10: duplicate columns
# T5 construct: HDAC2 (full length, C-terminal His tag, BPS Bioscience, cat. #: 50002); purchased BPS Bioscience 50002
# [3] = log[inhibitor(M)] -10,5850266520292*, whole line marked with asterisks
# [4] = resynthesized peptides, from Ki
# T5 sequence (Q92769 whole entry): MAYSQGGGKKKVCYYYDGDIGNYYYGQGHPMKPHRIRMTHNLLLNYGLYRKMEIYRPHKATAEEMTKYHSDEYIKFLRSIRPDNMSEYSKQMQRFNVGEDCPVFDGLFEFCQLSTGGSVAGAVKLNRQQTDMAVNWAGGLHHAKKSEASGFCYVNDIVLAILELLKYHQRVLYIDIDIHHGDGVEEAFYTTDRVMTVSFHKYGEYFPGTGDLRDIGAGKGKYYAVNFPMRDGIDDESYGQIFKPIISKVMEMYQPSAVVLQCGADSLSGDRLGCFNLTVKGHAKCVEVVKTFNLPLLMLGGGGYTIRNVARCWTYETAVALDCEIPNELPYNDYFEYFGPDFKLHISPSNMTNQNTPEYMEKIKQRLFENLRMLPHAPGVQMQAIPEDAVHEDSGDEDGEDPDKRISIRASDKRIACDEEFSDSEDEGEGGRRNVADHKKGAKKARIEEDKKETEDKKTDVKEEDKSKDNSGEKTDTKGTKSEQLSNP
# T2 sequence (O15379 whole entry): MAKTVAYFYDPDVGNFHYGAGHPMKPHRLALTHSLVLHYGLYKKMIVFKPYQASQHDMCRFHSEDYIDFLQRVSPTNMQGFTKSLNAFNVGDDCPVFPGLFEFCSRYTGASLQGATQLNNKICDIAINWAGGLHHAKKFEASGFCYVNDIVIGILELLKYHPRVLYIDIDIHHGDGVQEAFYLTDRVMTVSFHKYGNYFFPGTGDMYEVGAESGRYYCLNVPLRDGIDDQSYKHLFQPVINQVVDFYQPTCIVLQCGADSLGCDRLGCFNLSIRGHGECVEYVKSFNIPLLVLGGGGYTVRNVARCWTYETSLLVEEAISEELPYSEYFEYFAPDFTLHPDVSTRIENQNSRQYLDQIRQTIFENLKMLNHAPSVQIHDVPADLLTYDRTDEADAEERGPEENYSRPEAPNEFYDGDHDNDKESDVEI
# T2 sequence (Q9Y618 389-480 partner limits assumed): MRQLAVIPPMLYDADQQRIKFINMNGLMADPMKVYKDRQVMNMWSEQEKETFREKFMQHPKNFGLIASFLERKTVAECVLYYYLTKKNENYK
# T3 sequence (Q13547 whole entry): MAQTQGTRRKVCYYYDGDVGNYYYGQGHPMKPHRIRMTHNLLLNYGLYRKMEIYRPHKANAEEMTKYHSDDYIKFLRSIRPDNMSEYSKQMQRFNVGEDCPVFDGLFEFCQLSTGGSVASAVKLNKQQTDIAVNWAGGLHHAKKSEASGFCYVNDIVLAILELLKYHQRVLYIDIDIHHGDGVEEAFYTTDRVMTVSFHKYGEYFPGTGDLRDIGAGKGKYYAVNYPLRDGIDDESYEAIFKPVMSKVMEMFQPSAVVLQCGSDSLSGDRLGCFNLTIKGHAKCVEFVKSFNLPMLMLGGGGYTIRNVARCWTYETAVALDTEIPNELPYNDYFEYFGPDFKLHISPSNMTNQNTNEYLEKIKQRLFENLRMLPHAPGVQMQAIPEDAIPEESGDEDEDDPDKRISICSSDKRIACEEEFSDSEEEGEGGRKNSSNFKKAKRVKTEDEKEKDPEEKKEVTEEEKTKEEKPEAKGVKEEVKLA
smiles,measurement,setting,value
CC[C@H](C)[C@H](NC(=O)[C@@H](NC(=O)[C@H](CO)NC(=O)[C@H](CCCNC(=N)N)NC(=O)[C@H](CCCCCC(=O)NO)NC(=O)[C@H](CC(N)=O)NC(=O)[C@H](Cc1ccc(O)cc1)NC(=O)[C@H](Cc1c[nH]cn1)NC(=O)[C@H](C)NC(=O)[C@H](CC(C)C)NC(=O)[C@H](CCCNC(=N)N)NC(=O)[C@H](CO)NC(=O)[C@H](C)NC(=O)[C@H](CCC(=O)O)NC(C)=O)[C@@H](C)O)C(=O)N[C@H](C(=O)N[C@@H](CO)C(=O)N[C@@H](Cc1c[nH]c2ccccc12)C(N)=O)[C@@H](C)O [11a] (Ac-EASRLAHYN[Asu](NHOH)RSTITSW-NH2),residual enzymatic activity relative to control wells,HDAC6; log[inhibitor(M)] -7.79588,67.8407 and 69.7758
same,residual enzymatic activity relative to control wells,HDAC6; log[inhibitor(M)] -8.49485,85.433 and 85.1351
same,residual enzymatic activity relative to control wells,HDAC6; log[inhibitor(M)] -9.19382,83.1934 and 87.9013
same,residual enzymatic activity relative to control wells,HDAC6; log[inhibitor(M)] -9.89279,78.0457 and 86.7533
same,residual enzymatic activity relative to control wells,HDAC6; log[inhibitor(M)] -10.585,79.87 and 88.4822
same,EC50,HDAC3/NCoR2 [1],2.82 nM
same,Ki,HDAC3/NCoR2 [2],3.45 ± 0.02 nM
same,"HDAC3 dose-response data (relative enzyme activity), Fig. 6 + S. Fig. 10",HDAC3/NCoR2 [2]; log[inhibitor(M)] -4.30103,0.8032 and 0.6973
same,"HDAC3 dose-response data (relative enzyme activity), Fig. 6 + S. Fig. 10",HDAC3/NCoR2 [2]; log[inhibitor(M)] -5,0.9208 and 1.031
same,"HDAC3 dose-response data (relative enzyme activity), Fig. 6 + S. Fig. 10",HDAC3/NCoR2 [2]; log[inhibitor(M)] -5.69897,3.115 and 3.491
same,"HDAC3 dose-response data (relative enzyme activity), Fig. 6 + S. Fig. 10",HDAC3/NCoR2 [2]; log[inhibitor(M)] -6.39794,8.97 and 10.4813
same,"HDAC3 dose-response data (relative enzyme activity), Fig. 6 + S. Fig. 10",HDAC3/NCoR2 [2]; log[inhibitor(M)] -7.09691,21.4302 and 25.3963
same,"HDAC3 dose-response data (relative enzyme activity), Fig. 6 + S. Fig. 10",HDAC3/NCoR2 [2]; log[inhibitor(M)] -7.79588,44.8111 and 52.4153
same,"HDAC3 dose-response data (relative enzyme activity), Fig. 6 + S. Fig. 10",HDAC3/NCoR2 [2]; log[inhibitor(M)] -8.49485,70.9236 and 81.6314
same,"HDAC3 dose-response data (relative enzyme activity), Fig. 6 + S. Fig. 10",HDAC3/NCoR2 [2]; log[inhibitor(M)] -9.19382,91.8976 and 96.1605
same,"HDAC3 dose-response data (relative enzyme activity), Fig. 6 + S. Fig. 10",HDAC3/NCoR2 [2]; log[inhibitor(M)] -9.89279,95.3177 and 97.0902
same,"HDAC3 dose-response data (relative enzyme activity), Fig. 6 + S. Fig. 10",HDAC3/NCoR2 [2]; [3],"96,0565351* and 98,690933*"
same,selectivity for HDAC3 vs. HDAC8,HDAC3/NCoR2 [2]; [4],63 fold and > 60 fold
same,selectivity for HDAC3 vs. HDACs 1 and 2,HDAC3/NCoR2 [2]; [4],4 fold and ~ 4 fold
same,EC50,HDAC1,> 25.1 nM
same,EC50,HDAC8,> 25.1 nM
same,"HDAC2 dose-response data (relative enzyme activity), Fig. 6 + S. Fig. 10",HDAC2; log[inhibitor(M)] -5,1.895 and 2.051
same,"HDAC2 dose-response data (relative enzyme activity), Fig. 6 + S. Fig. 10",HDAC2; log[inhibitor(M)] -5.69897,7.362 and 7.275
same,"HDAC2 dose-response data (relative enzyme activity), Fig. 6 + S. Fig. 10",HDAC2; log[inhibitor(M)] -7.79588,79.8909 and 86.975
same,"HDAC2 dose-response data (relative enzyme activity), Fig. 6 + S. Fig. 10",HDAC2; [3],"93,4642959* and 101,701404*"
same,Ki,"HDAC2; resynthesized peptide in solution, Cheng-Prusoff, n = 2",13.8 ± 0.1 nM
